Laboratory results taken from article PMC11396062, “The n-Butanol Extract Obtained from the Inner Bark of Tabebuia rosea (Bertol.) DC, Specioside, and Catalposide Induce Leukemia Cell Apoptosis in the Presence of Apicidin” (Molecules, 2024).
Converted amounts (≈) assume the structure as drawn. Like-named read-outs stand apart in the source and are kept apart here.

What was measured:
THP-1 cells [1] = test: Cell cycle analysis by flow cytometry; format: cell-based, human; details: THP-1, APC pretreatment
Experimental: After treatment with the extract, 7 × 10^4 cells were harvested, washed with PBS, fixed with 200 µL of ice-cold 70% ethanol, and maintained at 4 °C for 4 h before staining. The cell pellet was washed in 1X PBS, resuspended in 200 µL of Guava Cell Cycle reagent (#4500-0220, Millipore), and incubated in the dark at 37 °C for 30 min before analysis with a Guava flow cytometer (Merck Millipore, Bedford, MA, USA) using InCyte software (version 3.1, Merck Millipore).. Centrifugation was performed at 1200 rpm for 5 min at room temperature for each step.

THP-1 cells [2] = test: Mitochondrial membrane potential (JC-1); format: cell-based, human; details: THP-1, JC-1, 24 h
Experimental: The Λᴪm was measured using a Guava Mitochondrial Depolarization Kit (4500-0250 Millipore, Darmstadt, Germany). After pretreatment with 1 µM apicidin for 24 h, the cells were exposed to various concentrations of the extract (25, 50, and 100 µg/mL) for 24 h. The cells were collected and suspended in 100 µL of PBS containing JC-1 and 7-AAD after incubation at 37 °C for 15 min. The fluorescence intensity of the cells was analyzed in a Guava Millipore flow cytometer (Merck Millipore, Bedford, MA, USA) using InCyte software (version 3.1, Merck Millipore).

THP-1 cells [3] = test: Flow cytometric apoptosis, Annexin V-CF647/7-AAD; format: cell-based, human; details: THP-1, 24 h, apicidin pretreatment
Experimental: In 96-well plates, 8 × 10^4 cells were treated with 25, 50, and 100 µg/mL extract and 400 µM doxorubicin (positive control) for 24 and 48 h. The cells were washed with 1X PBS, and apoptotic cells were detected by staining with 100 µL of Annexin V-CF647 and 5 µL of the 7-AAD Apoptosis Annexin Red Kit (FCCH100108 FlowCellect, Millipore, Darmstadt, Germany). The cells were incubated at room temperature for 15 min in the dark and analyzed on a Guava Millipore flow cytometer (Merck Millipore, Bedford, MA, USA) using InCyte software (version 3.1, Merck Millipore). The percentage of annexin V-positive cells was evaluated.

THP-1 cells [4] = test: Fluorescence microscopy of nuclear morphology (propidium iodide and Hoechst staining); format: cell-based, human; details: THP-1, APC pretreatment, extract 25 μg/mL
Experimental: Fluorescence microscopy was used to observe cell nuclear morphology, followed by propidium iodide (50 µg/mL) and Hoechst 333342 (1 mg/mL) staining. THP-1 cells (1 × 10^5 cells/well) were treated with fresh media (control) and with 25, 50, or 100 µg/mL extract for 24 h; 400 µM doxorubicin was used as a positive control. Further, 10 microliters of the cell suspension was mixed with 90 µL of the dye, incubated in a water bath for 5 min at 37 °C, and wrapped in aluminum foil. The cells were examined under an Olympus IX53 fluorescence microscope (Olympus Corporation, Tokyo, Japan). The following formula was used to calculate the percentage of apoptotic cells.

THP-1 cells [5] = test: MTT cell viability assay, THP-1 cells; format: cell-based, human; details: for IC50: Homo sapiens, MTT, n = 3, read-out: IC50
Experimental: (§1) Jurkat and THP-1 cell lines were purchased from the American Type Culture Collection (ATCC, Rockville, MD, USA); Jurkat is a human lymphocytic cell line representing acute T-cell leukemia, and THP-1 is a monocytic cell line that represents acute myelogenous leukemia (AML). […] Cat Nos. […] The cells were maintained at 37 °C in a humidified atmosphere with 5% CO2. The culture medium was exchanged with fresh medium every 2-3 days. Peripheral blood mononuclear cells (PBMCs) were isolated from normal human venous blood. Further, 10 milliliters of human blood was mixed with 10 mL of RPMI-1640 containing 50 μL of heparin and gradually poured over 1 mL of HISTOPAQUE®-1119 (Sigma). The plasma was removed by centrifugation at 3000 rpm for 30 min. The peripheral blood mononuclear cell-containing layer was collected with a pipette and diluted in 4 mL of PBS. PBMCs were harvested by centrifugation at 1500 rpm for 10 min at room temperature, resuspended in RPMI-1640 with 10% FBS, and incubated at 37 °C in 5% CO2 humidified air. […] Doxorubicin was used as a reference standard drug (positive control). After treatment, the medium was discarded; 200 μL of RPMI 1640 medium without phenol red containing 0.5 mg/mL MTT (Sigma Chemical Co., Saint Louis, MO, USA; Cat. No. […] The plates were incubated for four hours at 37 °C with 5% CO2 in a humidified atmosphere. The medium was discarded, and 100 μL of DMSO was added to solubilize the formazan crystals. The absorbance was measured with an ELISA microplate reader at 492 nm (ELx800; BioTek Instruments Inc., Winooski, VT, USA). The percentage of viable cells was calculated on the basis of the nontreated control (taken as 100%). […] Three independent assays were performed, each in triplicate. The selectivity index corresponds to the ratio of the IC50 value calculated for the activity of synthesized compounds on a regular cell line (PBMCs) to that of the IC50 calculated for cancer cell lines (Jurkat and THP-1). Values greater than two were optimal for an efficient selectivity index.

Jurkat cells = test: MTT cell viability assay, Jurkat cells; format: cell-based, human; details: for IC50: Homo sapiens, Jurkat, MTT, n = 3; for SI (selectivity index): IC50 PBMC / IC50 Jurkat
Experimental: as §1

[6] = tested on: Peripheral blood mononuclear cells (PBMCs); test: MTT cell viability assay, PBMC (normal cells); format: cell-based; details: Homo sapiens, n = 3
Experimental: Jurkat and THP-1 cell lines were purchased from the American Type Culture Collection (ATCC, Rockville, MD, USA); Jurkat is a human lymphocytic cell line representing acute T-cell leukemia, and THP-1 is a monocytic cell line that represents acute myelogenous leukemia (AML). Jurkat and THP-1 cells were maintained in RPMI 1640 medium (Sigma) supplemented with 10% heat-inactivated fetal bovine serum (FBS) (Gibco Cat No. 16140071, Waltham, MA USA), 200 μg/mL penicillin, 200 μg/mL streptomycin, 400 μg/mL neomycin (GIBCO, Cat No. 15640-055), 5 μg/mL amphotericin, and 1 mM sodium pyruvate (all from Sigma Chemical Co., Saint Louis, MO, USA; Cat Nos. A9528-50 MG, M7522-100ML, and S8636-100ML, respectively). The cells were maintained at 37 °C in a humidified atmosphere with 5% CO2. The culture medium was exchanged with fresh medium every 2–3 days. Peripheral blood mononuclear cells (PBMCs) were isolated from normal human venous blood. Further, 10 milliliters of human blood was mixed with 10 mL of RPMI-1640 containing 50 µL of heparin and gradually poured over 1 mL of HISTOPAQUE®-1119 (Sigma). The plasma was removed by centrifugation at 3000 rpm for 30 min. The peripheral blood mononuclear cell-containing layer was collected with a pipette and diluted in 4 mL of PBS. PBMCs were harvested by centrifugation at 1500 rpm for 10 min at room temperature, resuspended in RPMI-1640 with 10% FBS, and incubated at 37 °C in 5% CO2 humidified air.
Cell viability was determined by measuring the mitochondrial activity of live cells via the metabolism of the tetrazolium substrate 3-(4,5-dimethylthiazol-2-yl)-2,5-diphenyl tetrazolium bromide (MTT) and converting it to purple formazan crystals. Briefly, the cells (2 × 10^4 cells/well) were treated with 25, 50, 100, 200, or 400 μg/mL extract diluted in DMSO (at a final concentration of 0.5%) and incubated for 12, 24, or 48 h. Catalposide and specioside were tested at concentrations of 20, 50, and 100 μg/mL for 12, 24, and 48 h. For apicidin, 0.5, 1, and 2 μM apicidin were tested for 24 and 48 h. Doxorubicin was used as a reference standard drug (positive control). After treatment, the medium was discarded; 200 μL of RPMI 1640 medium without phenol red containing 0.5 mg/mL MTT (Sigma Chemical Co., Saint Louis, MO, USA; Cat. No. M2128-500MG) was then added to each well. The plates were incubated for four hours at 37 °C with 5% CO2 in a humidified atmosphere. The medium was discarded, and 100 μL of DMSO was added to solubilize the formazan crystals. The absorbance was measured with an ELISA microplate reader at 492 nm (ELx800; BioTek Instruments Inc., Winooski, VT, USA). The percentage of viable cells was calculated on the basis of the nontreated control (taken as 100%). The IC50 (concentration causing a 50% reduction in cellular viability) values for all the tested compounds were evaluated in Excel using the nonlinear regression curve method. Three independent assays were performed, each in triplicate.

| IC50 (THP-1 cells [5]; THP-1, 12 h) [µg/mL] | IC50 (THP-1 cells [5]; THP-1, 24 h) [µg/mL] | IC50 (THP-1 cells [5]; THP-1, 48 h) [µg/mL] | IC50 (Jurkat cells; 12 h) [µg/mL] | IC50 (Jurkat cells; 24 h) [µg/mL] | IC50 (Jurkat cells; 48 h) [µg/mL] | Structure (SMILES) | G0/G1 phase arrest with APC pretreatment (THP-1 cells [1]) | depolarization of the mitochondrial membrane (THP-1 cells [2]) | percentage of apoptotic cells, apicidin pretreatment compared with catalposide or specioside treatment (THP-1 cells [3]) | apoptosis (nuclear morphology) after APC pretreatment (THP-1 cells [4]) | SI (selectivity index) (THP-1 cells [5]; IC50 PBMC / IC50 THP-1, 12 h) | SI (selectivity index) (THP-1 cells [5]; IC50 PBMC / IC50 THP-1, 24 h) | SI (selectivity index) (THP-1 cells [5]; IC50 PBMC / IC50 THP-1, 48 h) | SI (selectivity index) (Jurkat cells; 12 h) | SI (selectivity index) (Jurkat cells; 24 h) | SI (selectivity index) (Jurkat cells; 48 h) | IC50 ([6]; 12 h) [µg/mL] | IC50 ([6]; 24 h) [µg/mL] | IC50 ([6]; 48 h) [µg/mL] |
| --- | --- | --- | --- | --- | --- | --- | --- | --- | --- | --- | --- | --- | --- | --- | --- | --- | --- | --- | --- |
| – | – | – | – | – | – | CCC(=O)CCCCC[C@@H]1NC(=O)[C@H]2CCCCN2C(=O)[C@H]([C@@H](C)CC)NC(=O)[C@H](Cc2cn(OC)c3ccccc23)NC1=O [APC, apicidin] | increased | decreased mitochondrial membrane polarization | increased the percentage of apoptotic cells | increased apoptosis | – | – | – | – | – | – | – | – | – |
| 1.27 ± 0.2 (≈ 2.33 µM) | 0.189 ± 0.1 (≈ 0.348 µM) | 0.005 ± 0.01 (≈ 0.0092 µM) | 0.339 ± 1.2 (≈ 0.624 µM) | 0.258 ± 0.1 (≈ 0.475 µM) | 0.05 (≈ 0.092 µM) | COc1cccc2c1C(=O)c1c(O)c3c(c(O)c1C2=O)C[C@@](O)(C(=O)CO)C[C@@H]3O[C@H]1C[C@H](N)[C@H](O)[C@H](C)O1 [Doxorubicin, reference compound] | – | – | – | – | 1.07 | 1.183 | 3.6 | 4.02 | 0.86 | 0.36 | 1.36 ± 0.15 (≈ 2.51 µM) | 0.224 ± 0.1 (≈ 0.412 µM) | 0.018 ± 0.1 (≈ 0.0331 µM) |
